Data from patent US9249129B2, “Morpholino substituted urea derivatives as mTOR inhibitors” (CELLZOME LIMITED, priority 2010, dated 2016).

Columns and labels:
Assay in all cases: kinobeads assay with mass spectrometry detection of kinases (kinase selectivity profile)
Type in all cases: binding
kinases (kinome) [1] = target: T1, kinases (kinome) (Homo sapiens, UniProt P49841); conditions: GSK3B (CMGC), IPI00216190
T1 construct: determined in kinobeads assays with mass spectrometry detection of kinases as described previously; endogenous in cells; host or cells: cell lysate
T1 sequence (P49841 whole entry): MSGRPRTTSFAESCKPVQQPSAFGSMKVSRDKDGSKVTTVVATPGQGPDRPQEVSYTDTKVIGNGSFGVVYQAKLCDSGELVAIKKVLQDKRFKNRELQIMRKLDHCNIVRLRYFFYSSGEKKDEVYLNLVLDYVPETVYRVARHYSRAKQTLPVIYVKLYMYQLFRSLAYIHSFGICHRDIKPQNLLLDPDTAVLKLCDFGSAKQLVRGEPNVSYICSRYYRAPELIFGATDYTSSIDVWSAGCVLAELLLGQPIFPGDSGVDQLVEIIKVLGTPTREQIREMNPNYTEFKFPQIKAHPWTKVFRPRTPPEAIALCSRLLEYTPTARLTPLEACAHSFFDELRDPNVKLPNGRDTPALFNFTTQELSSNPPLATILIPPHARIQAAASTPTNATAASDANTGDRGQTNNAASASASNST
Excerpt: (§1) The protein kinase complement of the human genome (the kinome) was described previously (Manning et al., 2002. Science 298(5600):1912-1934). Sequence accession numbers are defined by the International Protein Index (IPI) (Kersey et al., 2004. Proteomics 4(7):1985-1988).

kinases (kinome) [2] = target: T2, kinases (kinome) (Homo sapiens, UniProt P48736); conditions: PIK3Cg (Lipid Kinase), IPI00292690
T2 construct: determined in kinobeads assays with mass spectrometry detection of kinases as described previously; endogenous in cells; host or cells: cell lysate
T2 sequence (P48736 whole entry): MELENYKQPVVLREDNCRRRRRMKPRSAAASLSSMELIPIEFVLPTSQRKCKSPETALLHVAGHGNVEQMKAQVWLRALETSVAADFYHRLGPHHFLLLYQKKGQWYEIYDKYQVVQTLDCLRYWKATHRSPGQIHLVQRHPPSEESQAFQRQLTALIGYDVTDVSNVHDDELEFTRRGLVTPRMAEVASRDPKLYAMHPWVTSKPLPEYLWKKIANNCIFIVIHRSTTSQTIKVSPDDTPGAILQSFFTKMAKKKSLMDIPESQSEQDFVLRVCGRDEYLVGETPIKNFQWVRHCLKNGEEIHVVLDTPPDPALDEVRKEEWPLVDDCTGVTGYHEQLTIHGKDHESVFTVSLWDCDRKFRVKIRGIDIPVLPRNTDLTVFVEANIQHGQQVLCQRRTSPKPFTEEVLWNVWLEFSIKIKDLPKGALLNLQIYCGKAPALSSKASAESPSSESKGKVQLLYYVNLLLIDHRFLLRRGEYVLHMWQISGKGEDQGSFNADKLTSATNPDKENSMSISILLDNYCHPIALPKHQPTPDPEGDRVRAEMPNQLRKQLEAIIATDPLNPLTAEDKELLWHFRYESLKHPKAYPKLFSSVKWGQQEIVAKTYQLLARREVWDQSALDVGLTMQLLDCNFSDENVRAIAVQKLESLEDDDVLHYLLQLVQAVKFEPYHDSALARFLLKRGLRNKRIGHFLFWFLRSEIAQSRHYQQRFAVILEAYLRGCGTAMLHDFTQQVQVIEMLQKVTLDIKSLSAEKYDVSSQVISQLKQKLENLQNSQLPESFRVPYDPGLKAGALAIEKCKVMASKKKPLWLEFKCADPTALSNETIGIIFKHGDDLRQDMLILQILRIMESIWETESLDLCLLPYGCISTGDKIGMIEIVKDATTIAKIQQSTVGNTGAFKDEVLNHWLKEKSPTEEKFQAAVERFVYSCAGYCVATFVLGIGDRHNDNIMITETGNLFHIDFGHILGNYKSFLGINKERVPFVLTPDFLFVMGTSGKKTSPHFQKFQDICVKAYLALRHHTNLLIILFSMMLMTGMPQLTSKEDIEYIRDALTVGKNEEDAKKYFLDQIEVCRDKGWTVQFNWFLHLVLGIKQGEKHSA
Excerpt: as §1

kinases (kinome) [3] = target: T3, kinases (kinome) (Homo sapiens, UniProt P42338); conditions: PIK3Cb (Lipid Kinase), IPI00031388
T3 construct: determined in kinobeads assays with mass spectrometry detection of kinases as described previously; endogenous in cells; host or cells: cell lysate
Excerpt: as §1

kinases (kinome) [4] = target: T4, kinases (kinome) (Homo sapiens, UniProt Q08881); conditions: ITK (TK), IPI00004566
T4 construct: determined in kinobeads assays with mass spectrometry detection of kinases as described previously; endogenous in cells; host or cells: cell lysate
T4 sequence (Q08881 1-620): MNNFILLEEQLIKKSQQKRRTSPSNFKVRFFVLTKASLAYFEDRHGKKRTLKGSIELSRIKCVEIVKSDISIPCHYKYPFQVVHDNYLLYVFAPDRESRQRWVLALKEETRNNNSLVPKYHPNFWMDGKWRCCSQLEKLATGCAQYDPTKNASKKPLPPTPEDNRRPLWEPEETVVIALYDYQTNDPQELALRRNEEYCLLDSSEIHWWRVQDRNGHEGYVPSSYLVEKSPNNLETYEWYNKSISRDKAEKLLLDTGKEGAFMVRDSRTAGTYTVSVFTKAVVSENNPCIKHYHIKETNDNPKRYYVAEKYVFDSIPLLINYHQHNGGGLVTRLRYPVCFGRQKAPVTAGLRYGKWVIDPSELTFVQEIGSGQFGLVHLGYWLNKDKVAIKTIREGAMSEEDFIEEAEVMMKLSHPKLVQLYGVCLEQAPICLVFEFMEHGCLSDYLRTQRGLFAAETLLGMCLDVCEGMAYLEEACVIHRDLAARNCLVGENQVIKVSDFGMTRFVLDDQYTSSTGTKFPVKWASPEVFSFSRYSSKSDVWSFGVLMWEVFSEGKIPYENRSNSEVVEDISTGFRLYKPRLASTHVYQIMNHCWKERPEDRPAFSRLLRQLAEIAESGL
Excerpt: as §1

kinases (kinome) [5] = target: T5, kinases (kinome) (Homo sapiens, UniProt O96013); conditions: PAK4 (STE), IPI00014068
T5 construct: determined in kinobeads assays with mass spectrometry detection of kinases as described previously; endogenous in cells; host or cells: cell lysate
T5 sequence (O96013 whole entry): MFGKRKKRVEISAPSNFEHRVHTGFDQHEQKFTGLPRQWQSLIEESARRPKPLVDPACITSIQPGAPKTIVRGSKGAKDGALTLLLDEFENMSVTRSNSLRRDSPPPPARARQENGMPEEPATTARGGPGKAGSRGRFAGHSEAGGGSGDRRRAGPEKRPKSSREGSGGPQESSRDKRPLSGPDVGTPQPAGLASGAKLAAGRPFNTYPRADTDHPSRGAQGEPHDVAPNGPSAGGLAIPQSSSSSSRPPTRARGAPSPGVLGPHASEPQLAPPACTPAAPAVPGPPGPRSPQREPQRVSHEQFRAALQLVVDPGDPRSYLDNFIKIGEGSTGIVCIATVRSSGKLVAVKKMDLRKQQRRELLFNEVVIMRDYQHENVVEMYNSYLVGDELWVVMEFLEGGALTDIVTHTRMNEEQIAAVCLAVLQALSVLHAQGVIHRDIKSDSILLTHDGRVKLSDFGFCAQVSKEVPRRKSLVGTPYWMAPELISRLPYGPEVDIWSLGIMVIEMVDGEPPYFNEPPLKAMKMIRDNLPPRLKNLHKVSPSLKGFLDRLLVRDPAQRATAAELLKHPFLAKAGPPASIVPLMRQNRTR
Excerpt: as §1

kinases (kinome) [6] = target: T6, kinases (kinome) (Homo sapiens, UniProt P42345); conditions: mTOR (Atypical), IPI00031410; 0.1 μM ranges
T6 construct: determined in kinobeads assays with mass spectrometry detection of kinases as described previously; endogenous in cells; host or cells: cell lysate
Excerpt: as §1

kinases (kinome) [7] = target: T7, kinases (kinome) (Homo sapiens, UniProt Q13705); conditions: ACTR2B (TKL), IPI00437565
T7 construct: determined in kinobeads assays with mass spectrometry detection of kinases as described previously; endogenous in cells; host or cells: cell lysate
T7 sequence (Q13705 19-512): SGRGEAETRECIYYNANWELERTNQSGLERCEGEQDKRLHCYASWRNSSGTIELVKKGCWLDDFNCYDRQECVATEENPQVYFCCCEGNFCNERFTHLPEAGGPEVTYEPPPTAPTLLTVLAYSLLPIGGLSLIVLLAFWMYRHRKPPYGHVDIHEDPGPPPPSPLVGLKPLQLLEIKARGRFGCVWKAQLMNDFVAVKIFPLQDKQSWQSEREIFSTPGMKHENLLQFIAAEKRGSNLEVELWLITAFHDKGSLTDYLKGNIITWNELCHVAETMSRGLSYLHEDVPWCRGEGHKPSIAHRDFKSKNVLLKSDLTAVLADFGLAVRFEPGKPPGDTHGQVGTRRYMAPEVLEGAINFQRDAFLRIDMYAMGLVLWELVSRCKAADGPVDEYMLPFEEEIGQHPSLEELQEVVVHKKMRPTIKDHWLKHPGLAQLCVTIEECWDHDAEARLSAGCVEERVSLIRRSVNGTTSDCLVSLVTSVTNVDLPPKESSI
Excerpt: as §1

kinases (kinome) [8] = target: T8, kinases (kinome) (Homo sapiens, UniProt Q9UBF8); conditions: PIK4Cb (Lipid Kinase), IPI00641770
T8 construct: determined in kinobeads assays with mass spectrometry detection of kinases as described previously; endogenous in cells; host or cells: cell lysate
T8 sequence (Q9UBF8 whole entry): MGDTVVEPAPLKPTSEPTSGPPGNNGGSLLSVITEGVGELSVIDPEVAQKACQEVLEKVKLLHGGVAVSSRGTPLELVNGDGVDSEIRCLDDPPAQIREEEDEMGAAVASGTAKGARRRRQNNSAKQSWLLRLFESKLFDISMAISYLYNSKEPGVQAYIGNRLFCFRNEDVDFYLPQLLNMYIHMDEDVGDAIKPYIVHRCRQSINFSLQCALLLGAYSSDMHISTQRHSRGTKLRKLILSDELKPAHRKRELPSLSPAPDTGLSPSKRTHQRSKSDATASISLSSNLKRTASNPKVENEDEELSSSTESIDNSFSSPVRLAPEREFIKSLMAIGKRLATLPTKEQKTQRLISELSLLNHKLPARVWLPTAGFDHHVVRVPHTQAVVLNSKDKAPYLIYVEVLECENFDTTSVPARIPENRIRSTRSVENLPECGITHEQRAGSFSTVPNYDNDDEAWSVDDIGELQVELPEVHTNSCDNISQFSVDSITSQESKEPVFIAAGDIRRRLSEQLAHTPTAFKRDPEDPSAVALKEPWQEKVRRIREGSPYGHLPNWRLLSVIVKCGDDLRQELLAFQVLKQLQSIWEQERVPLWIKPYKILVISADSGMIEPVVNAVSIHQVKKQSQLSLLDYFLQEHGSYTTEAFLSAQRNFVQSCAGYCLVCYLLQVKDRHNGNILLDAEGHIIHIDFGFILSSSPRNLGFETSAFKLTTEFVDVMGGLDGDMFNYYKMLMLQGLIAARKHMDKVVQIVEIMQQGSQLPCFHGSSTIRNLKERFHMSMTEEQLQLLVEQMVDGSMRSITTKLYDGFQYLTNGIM
Excerpt: as §1

kinases (kinome) [9] = target: T9, kinases (kinome) (Homo sapiens, UniProt Q13554); conditions: CaMK2b (CAMK), IPI00221305
T9 construct: determined in kinobeads assays with mass spectrometry detection of kinases as described previously; endogenous in cells; host or cells: cell lysate
Excerpt: as §1

kinases (kinome) [10] = target: T10, kinases (kinome) (Homo sapiens, UniProt Q99570); conditions: PIK3R4 (Other), IPI00024006
T10 construct: determined in kinobeads assays with mass spectrometry detection of kinases as described previously; endogenous in cells; host or cells: cell lysate
T10 sequence (Q99570 whole entry): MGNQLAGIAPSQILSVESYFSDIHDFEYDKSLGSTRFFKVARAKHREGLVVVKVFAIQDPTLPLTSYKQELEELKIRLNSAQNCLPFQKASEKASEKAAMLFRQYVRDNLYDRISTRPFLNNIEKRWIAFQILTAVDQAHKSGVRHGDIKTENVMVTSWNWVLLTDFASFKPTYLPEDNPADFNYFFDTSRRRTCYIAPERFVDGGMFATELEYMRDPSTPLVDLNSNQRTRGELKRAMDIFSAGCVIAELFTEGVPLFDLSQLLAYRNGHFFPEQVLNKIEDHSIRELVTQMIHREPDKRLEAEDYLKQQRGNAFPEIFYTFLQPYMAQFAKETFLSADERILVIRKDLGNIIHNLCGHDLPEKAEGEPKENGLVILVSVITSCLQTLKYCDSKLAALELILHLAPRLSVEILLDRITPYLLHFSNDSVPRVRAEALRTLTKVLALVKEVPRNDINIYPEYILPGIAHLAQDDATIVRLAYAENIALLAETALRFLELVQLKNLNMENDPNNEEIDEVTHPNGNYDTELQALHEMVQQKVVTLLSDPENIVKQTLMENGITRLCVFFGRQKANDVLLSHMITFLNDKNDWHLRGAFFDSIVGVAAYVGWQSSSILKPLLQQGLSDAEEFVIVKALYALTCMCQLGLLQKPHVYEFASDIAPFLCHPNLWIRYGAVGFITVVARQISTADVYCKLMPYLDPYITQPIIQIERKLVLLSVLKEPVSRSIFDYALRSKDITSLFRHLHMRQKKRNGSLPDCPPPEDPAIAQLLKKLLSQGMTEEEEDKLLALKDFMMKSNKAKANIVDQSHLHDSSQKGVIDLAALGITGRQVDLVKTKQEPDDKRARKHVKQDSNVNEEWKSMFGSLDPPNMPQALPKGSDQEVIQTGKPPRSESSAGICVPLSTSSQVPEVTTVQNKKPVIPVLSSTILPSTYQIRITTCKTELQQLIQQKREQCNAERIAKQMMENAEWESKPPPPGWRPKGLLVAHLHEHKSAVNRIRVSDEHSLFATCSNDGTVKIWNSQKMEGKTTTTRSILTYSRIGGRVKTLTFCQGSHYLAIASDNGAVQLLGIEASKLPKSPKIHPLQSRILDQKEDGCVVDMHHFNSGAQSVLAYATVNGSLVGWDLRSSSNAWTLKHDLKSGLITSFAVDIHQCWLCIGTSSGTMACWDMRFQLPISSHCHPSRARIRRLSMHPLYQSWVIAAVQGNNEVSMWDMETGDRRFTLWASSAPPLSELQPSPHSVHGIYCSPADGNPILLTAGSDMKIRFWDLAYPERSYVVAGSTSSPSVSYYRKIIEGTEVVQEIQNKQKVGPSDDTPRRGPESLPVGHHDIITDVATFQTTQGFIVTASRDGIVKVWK
Excerpt: as §1

kinases (kinome) [11] = target: T11, kinases (kinome) (Homo sapiens, UniProt Q8TBX8); conditions: PIP5K2C (Lipid Kinase), IPI00152303
T11 construct: determined in kinobeads assays with mass spectrometry detection of kinases as described previously; endogenous in cells; host or cells: cell lysate
T11 sequence (Q8TBX8 1-421): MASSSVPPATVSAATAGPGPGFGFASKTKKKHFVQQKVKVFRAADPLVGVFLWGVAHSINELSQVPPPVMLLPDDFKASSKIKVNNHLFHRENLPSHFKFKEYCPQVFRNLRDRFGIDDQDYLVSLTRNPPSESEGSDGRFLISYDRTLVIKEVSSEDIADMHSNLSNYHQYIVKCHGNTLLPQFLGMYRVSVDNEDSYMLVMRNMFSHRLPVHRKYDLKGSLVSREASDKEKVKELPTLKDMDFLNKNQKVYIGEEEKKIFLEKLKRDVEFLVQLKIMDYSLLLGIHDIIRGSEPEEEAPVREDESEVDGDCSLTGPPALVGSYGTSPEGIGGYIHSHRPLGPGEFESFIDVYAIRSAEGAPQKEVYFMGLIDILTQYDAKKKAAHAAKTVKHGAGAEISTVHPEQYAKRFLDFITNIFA
Excerpt: as §1

SMILES	IC50 (kinases (kinome) [1])	IC50 (kinases (kinome) [2])	IC50 (kinases (kinome) [3])	IC50 (kinases (kinome) [4])	IC50 (kinases (kinome) [5])	IC50 (kinases (kinome) [6])	IC50 (kinases (kinome) [7])	IC50 (kinases (kinome) [8])	IC50 (kinases (kinome) [9])	IC50 (kinases (kinome) [10])	IC50 (kinases (kinome) [11])
C[C@H]1COCCN1c1nc(-c2ccc(NC(=O)NC3CC3)cc2)cc(-c2ccccc2S(C)(=O)=O)n1 [Example 4, (S)-1-cyclopropyl-3-(4-(2-(3-methylmorpholino)-6-(2-(methylsulfonyl)phenyl)pyrimidin-4-yl)phenyl)urea]	> 10 µM	> 10 µM	> 10 µM	> 10 µM	> 10 µM	300 to 400 nM	> 10 µM	> 10 µM	–	> 10 µM	–
C[C@H]1COCCN1c1cc(-c2ccccn2)nc(-c2ccc(NC(=O)NCCO)cc2)n1 [Example 43, (S)-1-(2-hydroxyethyl)-3-(4-(4-(3-methylmorpholino)-6-(pyridin-2-yl)pyrimidin-2-yl)phenyl)urea]	> 10 µM	> 10 µM	> 10 µM	> 10 µM	> 10 µM	100 to 200 nM	> 10 µM	> 10 µM	> 10 µM	> 10 µM	> 10 µM
C[C@H]1COCCN1c1nc(-c2ccc(NC(=O)NC3CC3)cc2)cc(-c2cc(F)ccc2S(C)(=O)=O)n1 [Example 40, (S)-1-cyclopropyl-3-(4-(6-(5-fluoro-2-(methylsulfonyl)phenyl)-2-(3-methylmorpholino)pyrimidin-4-yl)phenyl)urea]	> 10 µM	> 10 µM	> 10 µM	> 10 µM	> 10 µM	100 to 200 nM	> 10 µM	> 10 µM	> 10 µM	> 10 µM	> 10 µM

More lines, now with the values ahead:

IC50 (kinases (kinome) [1])	IC50 (kinases (kinome) [2])	IC50 (kinases (kinome) [3])	IC50 (kinases (kinome) [4])	IC50 (kinases (kinome) [5])	IC50 (kinases (kinome) [6])	IC50 (kinases (kinome) [7])	IC50 (kinases (kinome) [8])	IC50 (kinases (kinome) [9])	IC50 (kinases (kinome) [10])	IC50 (kinases (kinome) [11])	SMILES
> 10 µM	> 10 µM	> 10 µM	> 10 µM	> 10 µM	100 to 200 nM	> 10 µM	> 10 µM	> 10 µM	–	–	C[C@H]1COCCN1c1cc(-c2ccccc2S(C)(=O)=O)nc(-c2ccc(NC(=O)NC3CC3)cc2)n1 [Example 6, (S)-1-cyclopropyl-3-(4-(4-(3-methylmorpholino)-6-(2-(methylsulfonyl)phenyl)pyrimidin-2-yl)phenyl)urea]
> 10 µM	> 10 µM	> 10 µM	> 10 µM	> 10 µM	100 to 200 nM	> 10 µM	> 10 µM	> 10 µM	–	–	CCNC(=O)Nc1ccc(-c2cc(-c3ccccc3C#N)nc(N3CCOC[C@@H]3C)n2)cc1 [Example 8, (S)-1-(4-(6-(2-cyanophenyl)-2-(3-methylmorpholino)pyrimidin-4-yl)phenyl)-3-ethylurea]
> 10 µM	> 10 µM	> 10 µM	> 10 µM	> 10 µM	200 to 300 nM	> 10 µM	> 10 µM	> 10 µM	> 10 µM	> 10 µM	C[C@H]1COCCN1c1nc(-c2ccc(NC(=O)NC3CC3)cc2)cc(-c2cccnc2S(C)(=O)=O)n1 [Example 46, (S)-1-cyclopropyl-3-(4-(2-(3-methylmorpholino)-6-(2-(methylsulfonyl)pyridin-3-yl)pyrimidin-4-yl)phenyl)urea]
> 10 µM	> 10 µM	> 10 µM	> 10 µM	> 10 µM	100 to 200 nM	> 10 µM	> 10 µM	> 10 µM	> 10 µM	> 10 µM	C[C@H]1COCCN1c1nc(-c2ccc(NC(=O)N[C@H]3CCC[C@@H]3O)cc2)cc(-c2cc(F)ccc2S(C)(=O)=O)n1 [Example 76, 1-(4-(6-(5-fluoro-2-(methylsulfonyl)phenyl)-2-((S)-3-methylmorpholino)pyrimidin-4-yl)phenyl)-3-((1S,2S)-2-hydroxycyclopentyl)urea]
